Legend:
Assay in all cases: Kinase inhibitor profiling, pEY phosphorylation
Format in all cases: biochemical
FGFR1 = molecular target: T1, FGFR1 (Homo sapiens, UniProt P11362)
T1 construct: specificity data for proteins generated from a library of eighteen full-length clones; host or cells: rabbit reticulocyte lysate, TnT coupled transcription/translation
Experimental: (§1) Proteins were produced in an in vitro transcription and translation reaction. […] The unbound components of the reaction containing endogenous kinases were removed by three washes with TT-buffer (25 mM Tris-HCl buffer pH 7.4 and 0.004% Triton), two five minutes washings with high-salt wash buffer (25 mM Tris-HCl buffer pH 7.4, 0.004% Triton, 1M NaCl and 5 mM DTT) and 3 more washes with TT-buffer. To these immobilized and purified proteins a tyrosine kinase substrate, 5 nM pEY (poly Glu-Tyr, Sigma, MO), was added in a 50 μl reaction solution containing 5 mM MgCl2, 5 mM MnCl2, 100 μM ATP, 25 mM Tris-HCl buffer pH 7.4, 0.05 mM Na3VO4, 0.004% TritonX-100, 2 mM DTT and EDTA-free protease inhibitor (Roche Molecular Biochemicals). This mixture was incubated with shaking at room temperature overnight to allow phosphorylation of the pEY substrate by the immobilized kinases. Following this incubation, 45 μl of this mixture was transferred to a streptavidin or avidin-coated NPT IPR plate coated with biotinylated anti-phosphotyrosine antibody (PY20, Zymed labs, CA) followed by incubation for 30 minutes at room temperature to allow the binding of the phosphorylated pEY substrate to the PY20 coated NPT plate. Following this binding step, 50 ng Sulfo-TAG labeled anti-phosphotyrosine in buffer containing 25 mM Tris-HCl buffer pH 7.4, 5 mM MgCl2, 0.05 mM Na3VO4, 0.004% TritonX-100, 2 mM DTT and 0.05% IgG was added followed by incubation at room temperature for 30 mm. The unbound reagents were removed by one time washing with water, and the TAG label was detected in presence of 150 μl IPR assay buffer (0.4 mM Gly-Gly buffer, pH 7.8, 1 mM EDTA, 0.1 M TPA). The ECL signals were measured using an imaging plate reader.
(§2) Proteins were produced using 100 ng of plasmid DNA Mock (Luciferase, Promega) or tyrosine kinases (Fert2 IMAGE ID # 4485050, FGFR1 IMAGE ID # 4037899, Fgfr2 IMAGE ID # 2654352, Src IMAGE ID # 3156400, BMX IMAGE ID # 3919253, LCK IMAGE ID # 4191610, Epha7 IMAGE ID # 3991628, Ephb4 IMAGE ID # 4013934, Tek IMAGE ID # 3482498, HCK IMAGE ID # 4778819, BTK IMAGE ID # 4478463, CSK IMAGE ID # 4398416, SYK IMAGE ID # 3870426, FGR IMAGE ID # 4419973, PTK2B IMAGE ID # 4339456, FRK(IMAGE ID # 4515877, Kit IMAGE ID # 2644960, Fgfr-4 IMAGE ID # 4239139, NTRK3 IMAGE ID # 4181574, Kdr IMAGE ID # 4238984, Incyte Genomics, CA) and immobilized on SA or avidin coated NPT-IPR plates as described in previous examples. The unbound components of the translation reaction (including any endogenous kinases) were removed by 3 washes with TT-buffer (25 mM Tris-HCl buffer pH 7.4 and 0.004% Triton), two five minutes washes with high-salt wash buffer (25 mM Tris-HCl buffer pH 7.4, 0.004% Triton, 1M NaCl and 5 mM DTT) and 3 washes with TT-buffer. […] The mixture was incubated at room temperature for 10 mm before starting the kinase reaction by adding 25 μl of 200 μM ATP in buffer A. This mixture was incubated with intermittent shaking at room temperature for 2 hours to overnight to allow (a) phosphorylation of the pEY substrate and (b) autophosphorylation of the immobilized kinases. Autophosphorylation and phosphorylation of the pEY was measured as described in Examples 7 and 8.
(§3) The ECL signal in control wells produced by tyrosine kinases was compared to the wells containing inhibitor compounds. The signal produced from Mock was negligible.

FGFR2 = molecular target: T2, FGFR2 (Mus musculus, UniProt P21803)
T2 construct: specificity data for proteins generated from a library of eighteen full-length clones; host or cells: rabbit reticulocyte lysate, TnT coupled in vitro transcription/translation (cell-free)
Experimental: as §1, §2, §3

Kit = molecular target: T3, Kit (Mus musculus, UniProt P05532)
T3 construct: specificity data for proteins generated from a library of eighteen full-length clones; biotin on random lysines (biotin-Lys-tRNA); host or cells: rabbit reticulocyte lysate, coupled transcription/translation (TnT, Promega)
Experimental: as §1, §2, §3

EphB4 = molecular target: T4, EphB4 (Mus musculus, UniProt P54761)
T4 construct: specificity data for proteins generated from a library of eighteen full-length clones; host or cells: rabbit reticulocyte lysate, TnT coupled in vitro transcription/translation (cell-free)
T4 sequence (P54761 16-987): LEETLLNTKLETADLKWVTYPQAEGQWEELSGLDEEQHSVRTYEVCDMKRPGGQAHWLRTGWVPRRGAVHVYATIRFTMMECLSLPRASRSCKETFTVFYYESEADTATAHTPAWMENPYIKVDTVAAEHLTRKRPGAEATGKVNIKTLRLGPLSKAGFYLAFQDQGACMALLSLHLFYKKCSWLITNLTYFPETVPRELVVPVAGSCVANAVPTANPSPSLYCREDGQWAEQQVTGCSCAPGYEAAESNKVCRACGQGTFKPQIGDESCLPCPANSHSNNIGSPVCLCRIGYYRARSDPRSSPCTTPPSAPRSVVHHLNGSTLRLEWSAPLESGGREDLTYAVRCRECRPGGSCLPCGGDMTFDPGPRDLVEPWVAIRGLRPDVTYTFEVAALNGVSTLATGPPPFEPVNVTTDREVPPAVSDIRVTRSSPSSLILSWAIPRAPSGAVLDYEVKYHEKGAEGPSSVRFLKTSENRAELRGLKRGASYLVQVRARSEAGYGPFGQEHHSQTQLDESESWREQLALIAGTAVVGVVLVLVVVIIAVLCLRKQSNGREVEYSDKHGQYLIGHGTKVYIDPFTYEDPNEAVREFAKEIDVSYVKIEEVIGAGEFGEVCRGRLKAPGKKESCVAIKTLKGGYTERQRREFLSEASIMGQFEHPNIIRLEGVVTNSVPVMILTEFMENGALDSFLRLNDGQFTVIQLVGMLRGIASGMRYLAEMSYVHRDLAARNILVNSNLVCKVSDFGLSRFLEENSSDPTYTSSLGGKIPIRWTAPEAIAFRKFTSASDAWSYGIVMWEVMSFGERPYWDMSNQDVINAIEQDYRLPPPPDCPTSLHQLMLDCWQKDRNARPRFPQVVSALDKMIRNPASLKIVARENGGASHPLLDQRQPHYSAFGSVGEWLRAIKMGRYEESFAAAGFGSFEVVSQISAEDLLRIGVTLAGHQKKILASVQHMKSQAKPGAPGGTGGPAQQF
Experimental: as §1, §2, §3

Fgfr4 = molecular target: T5, Fgfr4 (Mus musculus, UniProt Q03142)
T5 construct: specificity data for proteins generated from a library of eighteen full-length clones; biotin on random lysines (biotin-Lys-tRNA); host or cells: rabbit reticulocyte lysate, coupled transcription/translation (TnT, Promega)
Experimental: as §1, §2, §3

T2 sequence (P21803 22-821): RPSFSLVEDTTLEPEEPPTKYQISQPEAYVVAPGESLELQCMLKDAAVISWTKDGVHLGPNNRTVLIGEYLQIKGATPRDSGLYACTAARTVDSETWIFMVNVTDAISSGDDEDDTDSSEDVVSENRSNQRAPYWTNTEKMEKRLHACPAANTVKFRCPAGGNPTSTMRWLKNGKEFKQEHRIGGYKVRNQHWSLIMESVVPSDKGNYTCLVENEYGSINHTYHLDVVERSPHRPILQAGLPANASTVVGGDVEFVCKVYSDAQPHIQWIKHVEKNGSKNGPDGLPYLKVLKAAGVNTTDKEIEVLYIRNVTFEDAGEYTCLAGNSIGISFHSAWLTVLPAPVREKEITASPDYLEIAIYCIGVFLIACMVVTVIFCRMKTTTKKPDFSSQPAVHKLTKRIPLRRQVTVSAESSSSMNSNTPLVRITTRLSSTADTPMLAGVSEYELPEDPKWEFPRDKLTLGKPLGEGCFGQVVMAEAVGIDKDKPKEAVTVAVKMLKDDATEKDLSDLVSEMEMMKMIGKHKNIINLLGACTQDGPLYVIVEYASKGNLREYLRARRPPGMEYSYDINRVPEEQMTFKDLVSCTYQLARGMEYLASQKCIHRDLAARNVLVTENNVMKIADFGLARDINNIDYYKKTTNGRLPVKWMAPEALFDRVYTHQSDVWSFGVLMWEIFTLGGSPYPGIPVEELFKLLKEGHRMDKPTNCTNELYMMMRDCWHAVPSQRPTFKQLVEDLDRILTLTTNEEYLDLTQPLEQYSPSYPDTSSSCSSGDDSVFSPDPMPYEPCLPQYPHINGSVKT
T3 sequence (P05532 25-979): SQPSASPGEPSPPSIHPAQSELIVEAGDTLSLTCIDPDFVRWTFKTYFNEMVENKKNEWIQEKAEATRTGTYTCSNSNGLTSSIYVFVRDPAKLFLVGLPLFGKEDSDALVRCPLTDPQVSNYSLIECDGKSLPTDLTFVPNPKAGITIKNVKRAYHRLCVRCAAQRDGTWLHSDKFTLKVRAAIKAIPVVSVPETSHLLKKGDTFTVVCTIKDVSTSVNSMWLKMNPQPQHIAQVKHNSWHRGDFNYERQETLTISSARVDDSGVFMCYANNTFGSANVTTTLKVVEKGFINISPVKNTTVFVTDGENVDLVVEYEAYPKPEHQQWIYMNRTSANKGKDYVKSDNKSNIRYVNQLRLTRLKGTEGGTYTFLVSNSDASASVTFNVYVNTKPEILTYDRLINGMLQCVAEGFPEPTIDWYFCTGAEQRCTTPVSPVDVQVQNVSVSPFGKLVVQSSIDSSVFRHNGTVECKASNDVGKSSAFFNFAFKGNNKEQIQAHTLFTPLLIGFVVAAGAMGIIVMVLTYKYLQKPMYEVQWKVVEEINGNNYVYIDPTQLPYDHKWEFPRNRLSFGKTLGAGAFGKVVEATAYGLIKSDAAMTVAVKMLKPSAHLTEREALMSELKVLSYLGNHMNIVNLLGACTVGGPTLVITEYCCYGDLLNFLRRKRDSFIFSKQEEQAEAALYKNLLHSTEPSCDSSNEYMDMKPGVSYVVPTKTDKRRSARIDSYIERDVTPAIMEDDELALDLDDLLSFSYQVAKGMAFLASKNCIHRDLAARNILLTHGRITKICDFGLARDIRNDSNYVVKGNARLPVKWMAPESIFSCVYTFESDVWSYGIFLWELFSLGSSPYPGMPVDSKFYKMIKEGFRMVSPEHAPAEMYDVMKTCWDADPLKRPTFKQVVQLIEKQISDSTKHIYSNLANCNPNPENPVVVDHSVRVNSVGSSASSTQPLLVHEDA
T5 sequence (Q03142 17-799): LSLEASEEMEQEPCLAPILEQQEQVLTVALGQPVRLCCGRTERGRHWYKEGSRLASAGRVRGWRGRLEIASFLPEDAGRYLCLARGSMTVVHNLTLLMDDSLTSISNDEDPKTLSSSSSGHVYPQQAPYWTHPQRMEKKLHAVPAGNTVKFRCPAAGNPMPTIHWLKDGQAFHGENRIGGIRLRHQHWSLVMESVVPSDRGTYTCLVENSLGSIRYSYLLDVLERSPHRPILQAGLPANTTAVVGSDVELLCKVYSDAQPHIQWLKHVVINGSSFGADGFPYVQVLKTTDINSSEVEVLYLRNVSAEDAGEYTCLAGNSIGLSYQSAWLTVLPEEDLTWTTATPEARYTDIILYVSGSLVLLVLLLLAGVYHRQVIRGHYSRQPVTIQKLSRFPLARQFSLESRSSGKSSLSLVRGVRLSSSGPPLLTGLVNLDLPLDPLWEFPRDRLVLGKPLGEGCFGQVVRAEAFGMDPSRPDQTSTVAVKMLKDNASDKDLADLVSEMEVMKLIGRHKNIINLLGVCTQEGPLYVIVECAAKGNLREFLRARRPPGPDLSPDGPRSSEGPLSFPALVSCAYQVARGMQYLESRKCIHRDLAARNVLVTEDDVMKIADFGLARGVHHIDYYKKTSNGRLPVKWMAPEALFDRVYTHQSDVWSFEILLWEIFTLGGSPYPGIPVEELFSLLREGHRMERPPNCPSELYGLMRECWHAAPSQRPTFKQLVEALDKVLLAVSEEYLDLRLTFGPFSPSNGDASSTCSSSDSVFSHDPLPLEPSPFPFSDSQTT
T1 sequence (P11362 22-822): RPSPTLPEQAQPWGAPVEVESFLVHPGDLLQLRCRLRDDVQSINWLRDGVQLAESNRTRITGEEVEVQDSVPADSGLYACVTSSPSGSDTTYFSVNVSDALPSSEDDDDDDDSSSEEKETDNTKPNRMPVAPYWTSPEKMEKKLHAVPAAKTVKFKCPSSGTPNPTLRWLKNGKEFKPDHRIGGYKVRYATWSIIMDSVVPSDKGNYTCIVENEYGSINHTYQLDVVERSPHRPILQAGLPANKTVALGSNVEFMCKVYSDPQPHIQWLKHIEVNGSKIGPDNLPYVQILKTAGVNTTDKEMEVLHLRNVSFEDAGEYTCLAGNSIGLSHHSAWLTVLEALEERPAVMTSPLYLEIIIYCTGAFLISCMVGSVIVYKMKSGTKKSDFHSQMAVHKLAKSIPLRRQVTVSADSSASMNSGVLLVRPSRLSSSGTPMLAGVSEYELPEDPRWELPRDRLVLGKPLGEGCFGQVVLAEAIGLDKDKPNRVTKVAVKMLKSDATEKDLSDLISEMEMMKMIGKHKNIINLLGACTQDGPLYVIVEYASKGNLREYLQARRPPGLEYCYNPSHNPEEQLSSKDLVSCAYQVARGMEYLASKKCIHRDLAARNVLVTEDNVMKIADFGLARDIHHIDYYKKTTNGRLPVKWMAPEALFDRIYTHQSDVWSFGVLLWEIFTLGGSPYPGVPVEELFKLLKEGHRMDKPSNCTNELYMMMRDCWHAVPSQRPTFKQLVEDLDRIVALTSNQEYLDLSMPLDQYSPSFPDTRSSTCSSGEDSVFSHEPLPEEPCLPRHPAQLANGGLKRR

## COC(=O)c1ccc(NCc2cc(O)ccc2O)cc1 [AG-957]
FGFR1
  Inhibition specificity towards pEY phosphorylation at 10X IC50, FGFR1: L (low inhibition (“L”=between 50–75% of the activity remaining))
FGFR2
  Inhibition specificity towards pEY phosphorylation at 10X IC50, FGFR2: L (low inhibition (“L”=between 50–75% of the activity remaining))
Kit
  Inhibition specificity towards pEY phosphorylation at 10X IC50, Kit: L (low inhibition (“L”=between 50–75% of the activity remaining))
EphB4
  Inhibition specificity towards pEY phosphorylation at 10X IC50, EphB4: L (low inhibition (“L”=between 50–75% of the activity remaining))

## CC(C)(C)c1cc(C=C(C#N)C#N)cc(Br)c1O [AG-1024]
Fgfr4
  Inhibition specificity towards pEY phosphorylation at 10X IC50, Fgfr4: M (medium inhibition (“M”=between 25 to 50% of the activity remaining))
FGFR1
  Inhibition specificity towards pEY phosphorylation at 10X IC50, FGFR1: L (low inhibition (“L”=between 50–75% of the activity remaining))
FGFR2
  Inhibition specificity towards pEY phosphorylation at 10X IC50, FGFR2: L (low inhibition (“L”=between 50–75% of the activity remaining))
Kit
  Inhibition specificity towards pEY phosphorylation at 10X IC50, Kit: L (low inhibition (“L”=between 50–75% of the activity remaining))
EphB4
  Inhibition specificity towards pEY phosphorylation at 10X IC50, EphB4: L (low inhibition (“L”=between 50–75% of the activity remaining))

## Cc1cc2ncc(-c3ccc(O)c(O)c3)nc2cc1C [AG-1433]
Fgfr4
  Inhibition specificity towards pEY phosphorylation at 10X IC50, Fgfr4: H (high inhibition (“H”=less than 25% of the activity remaining))
FGFR1
  Inhibition specificity towards pEY phosphorylation at 10X IC50, FGFR1: H (high inhibition (“H”=less than 25% of the activity remaining))
FGFR2
  Inhibition specificity towards pEY phosphorylation at 10X IC50, FGFR2: H (high inhibition (“H”=less than 25% of the activity remaining))
Kit
  Inhibition specificity towards pEY phosphorylation at 10X IC50, Kit: H (high inhibition (“H”=less than 25% of the activity remaining))
EphB4
  Inhibition specificity towards pEY phosphorylation at 10X IC50, EphB4: H (high inhibition (“H”=less than 25% of the activity remaining))

## COc1c(C=O)c(O)cc2c1C(=O)c1ccccc1C2=O [Damnacanthal]
Fgfr4
  Inhibition specificity towards pEY phosphorylation at 10X IC50, Fgfr4: H (high inhibition (“H”=less than 25% of the activity remaining))
FGFR1
  Inhibition specificity towards pEY phosphorylation at 10X IC50, FGFR1: H (high inhibition (“H”=less than 25% of the activity remaining))
FGFR2
  Inhibition specificity towards pEY phosphorylation at 10X IC50, FGFR2: H (high inhibition (“H”=less than 25% of the activity remaining))
Kit
  Inhibition specificity towards pEY phosphorylation at 10X IC50, Kit: H (high inhibition (“H”=less than 25% of the activity remaining))
EphB4
  Inhibition specificity towards pEY phosphorylation at 10X IC50, EphB4: H (high inhibition (“H”=less than 25% of the activity remaining))

## Cc1ccc(-c2nn(C(C)(C)C)c3ncnc(N)c23)cc1 [PP1]
Fgfr4
  Inhibition specificity towards pEY phosphorylation at 10X IC50, Fgfr4: M (medium inhibition (“M”=between 25 to 50% of the activity remaining))
FGFR1
  Inhibition specificity towards pEY phosphorylation at 10X IC50, FGFR1: L (low inhibition (“L”=between 50–75% of the activity remaining))
Kit
  Inhibition specificity towards pEY phosphorylation at 10X IC50, Kit: M (medium inhibition (“M”=between 25 to 50% of the activity remaining))
EphB4
  Inhibition specificity towards pEY phosphorylation at 10X IC50, EphB4: L (low inhibition (“L”=between 50–75% of the activity remaining))

## COc1cc2ncnc(Nc3ccc(Cl)cc3F)c2cc1OC [VEGFR inhibitor]
Fgfr4
  Inhibition specificity towards pEY phosphorylation at 10X IC50, Fgfr4: L (low inhibition (“L”=between 50–75% of the activity remaining))
FGFR2
  Inhibition specificity towards pEY phosphorylation at 10X IC50, FGFR2: L (low inhibition (“L”=between 50–75% of the activity remaining))
Kit
  Inhibition specificity towards pEY phosphorylation at 10X IC50, Kit: L (low inhibition (“L”=between 50–75% of the activity remaining))
EphB4
  Inhibition specificity towards pEY phosphorylation at 10X IC50, EphB4: M (medium inhibition (“M”=between 25 to 50% of the activity remaining))

## COc1cc2ncnc(Nc3ccc(O)cc3)c2cc1OC [WHI-P131]
Fgfr4
  Inhibition specificity towards pEY phosphorylation at 10X IC50, Fgfr4: L (low inhibition (“L”=between 50–75% of the activity remaining))
FGFR1
  Inhibition specificity towards pEY phosphorylation at 10X IC50, FGFR1: L (low inhibition (“L”=between 50–75% of the activity remaining))
FGFR2
  Inhibition specificity towards pEY phosphorylation at 10X IC50, FGFR2: L (low inhibition (“L”=between 50–75% of the activity remaining))
Kit
  Inhibition specificity towards pEY phosphorylation at 10X IC50, Kit: H (high inhibition (“H”=less than 25% of the activity remaining))
EphB4
  Inhibition specificity towards pEY phosphorylation at 10X IC50, EphB4: M (medium inhibition (“M”=between 25 to 50% of the activity remaining))

## Erbstatin analog
Kit
  Inhibition specificity towards pEY phosphorylation at 10X IC50, Kit: L (low inhibition (“L”=between 50–75% of the activity remaining))
EphB4
  Inhibition specificity towards pEY phosphorylation at 10X IC50, EphB4: L (low inhibition (“L”=between 50–75% of the activity remaining))

Reference: patent US7063946B2, “Methods, reagents, kits and apparatus for protein function analysis” (Meso Scale Technologies, LLC., priority 2001, dated 2006)
